Data as given in paper PMC12223813, “Antiproliferative and Trypanocidal Activity of Ivermectin Bioconjugates” (ACS Omega, 2025).
Read-outs that look alike come from different tables or passages of the source.

Tests used:
[1] = test system: bloodstream forms of T. b. brucei (427-221a clone); test: microbe, parasite or virus in culture; settings: for GI50: Trypanosoma brucei, 72 h, read-out: T. brucei GI50, bloodstream forms, 72 h total (24 h + 48 h with resazurin), mean ± SD of three independent experiments
Protocol: (§1) The trypanocidal and cytotoxic activities of the newly synthesized IVR bioconjugates and their conjugation partners were determined for bloodstream forms of T. brucei brucei and human myeloid HL-60 cells in vitro using the resazurin cell viability assay as previously described.
(§2) Test compounds were assayed at 10-fold dilutions ranging from 100 μM to 1 nM in the presence of 0.9% DMSO. Controls were grown in the culture medium containing only 0.9% DMSO. The assays were cultured in an incubator at 37 °C in a humidified atmosphere containing 5% CO2. After 24 h incubation, 20 μL of 0.5 mM resazurin (prepared in sterile PBS) was added, and the cultures were grown for another 48 h. Then, the proliferation of the cells was determined by measuring the absorbance at 570 nm (test wavelength) and 630 nm (reference wavelength) using a microplate reader.

[2] = test system: human promyelocytic leukemia HL-60 cells; test: Cytotoxic activity, resazurin cell viability assay; assay type: cell-based; settings: 72 h total (24 h + 48 h with resazurin), mean ± SD of three independent experiments
Protocol: as §1, §2

[3] = test system: A549, human lung cancer cell line; test: Antiproliferative activity, MTT assay; assay type: cell-based; settings: for IC50: Homo sapiens, A549, 72 h, MTT, mean ± SD; for A549 SI: SI = IC50 HaCaT/IC50 A549
Protocol: (§3) Additionally, to assess the selectivity of these compounds toward cancer cells, we included an immortalized keratinocyte cell line from adult human skin (HaCaT) in the antiproliferative activity tests. Doxorubicin served as the reference anticancer drug.
(§4) The culture media were enriched with 10% fetal bovine serum (FBS, Sigma-Aldrich, St. Louis, MO, USA), 20 mM HEPES (Biowest, Nuaillé, France), and antibiotics (100 U/mL penicillin and 100 μg/mL streptomycin) obtained from Gibco (Grand Island, NY, USA). The cells were maintained in a humidified incubator at 37 °C with 5% CO2 until they reached 80–90% confluence, after which they were used for further experiments.
(§5) To assess the cytotoxicity, the cells (0.5 × 10^4/well) were plated in 96-well plates and allowed to adhere for 24 h. The MTT (3-(4,5-dimethylthiazol-2-yl)-2,5-diphenyltetrazolium bromide) assay was used to evaluate the cytotoxic effects of IVR bioconjugates on all tested cell lines. After 24 h incubation, cells were exposed to varying concentrations (1 to 100 μM) of the test compounds for 72 h. Following the treatment, the medium was discarded, and a 0.5 mg mL^–1 MTT solution was added to each well and incubation was continued for another 4 h. Mitochondrial enzyme activity facilitated the formation of formazan crystals, which were subsequently dissolved in DMSO-isopropanol (1:1, v/v), producing a violet-colored solution. A 100 μL aliquot of this solution was transferred to the well, and absorbance was recorded at 570 nm using a MultiscanGo spectrophotometer (ThermoFisher Scientific, Carlsbad, CA, USA).
(§6) Cytotoxicity was quantified by comparing the absorbance of the treated cells to that of untreated controls using the formula: [A]/[B] × 100, where [A] represents the absorbance of the treated sample and [B] corresponds to the absorbance of the control sample. A decrease in MTT levels reflects a decrease in cell viability.

[4] = test system: HCT-116, human primary colon cancer cell line; test: Antiproliferative activity, MTT assay; assay type: cell-based; settings: for IC50: Homo sapiens, HCT-116, 72 h, MTT, mean ± SD; for HCT-116 SI: SI = IC50 HaCaT/IC50 HCT-116
Protocol: as §3, §4, §5, §6

[5] = test system: MDA-MB-231, human triple-negative breast cancer cell line; test: Antiproliferative activity, MTT assay; assay type: cell-based; settings: for IC50: Homo sapiens, MDA-MB-231, 72 h, MTT, mean ± SD; for MDA-MB-231 SI: SI = IC50 HaCaT/IC50 MDA-MB-231
Protocol: as §3, §4, §5, §6

[6] = test system: PC3, human metastatic prostate cancer cell line; test: Antiproliferative activity, MTT assay; assay type: cell-based; settings: for IC50: Homo sapiens, 72 h, MTT, mean ± SD; for PC3 SI: SI = IC50 HaCaT/IC50 PC3
Protocol: as §3, §4, §5, §6

[7] = test system: HaCaT, human immortalized keratinocyte cell line; test: Cytotoxicity toward normal cells, MTT assay; assay type: cell-based; settings: 72 h, mean ± SD
Protocol: as §3, §4, §5, §6

| SMILES | selectivity GI50 ratio ([1]; GI50(HL-60)/GI50(T. brucei)) | GI50 [1] [µM] | GI50 [2] [µM] | IC50 [3] [µM] | A549 SI [3] | IC50 [4] [µM] | HCT-116 SI [4] | IC50 [5] [µM] | MDA-MB-231 SI [5] | IC50 [6] [µM] | PC3 SI [6] | IC50 [7] [µM] | selectivity GI50 ratio [1] |
| --- | --- | --- | --- | --- | --- | --- | --- | --- | --- | --- | --- | --- | --- |
| C[C@H]1[C@H](OC(=O)CCC(=O)O)O[C@@H]2O[C@@]3(C)CC[C@H]4[C@H](C)CC[C@@H]1[C@@]24OO3 [artesunate, reference compound] | 8.6 | 3.6 ± 0.2 | 30.8 ± 9 | 24 ± 6.9 | 0.2 | 37.8 ± 4.2 | 0.2 | 12.6 ± 3.9 | 0.5 | 48.5 ± 5.7 | 0.1 | 5.7 ± 0.1 | – |
| Cc1cn([C@H]2C[C@H](N=[N+]=[N-])[C@@H](CO)O2)c(=O)[nH]c1=O [azidothymidine, reference compound] | >5.2 | > 10 | > 100 | 72.1 ± 11.6 | >1.4 | 60.2 ± 9.7 | >1.7 | 52.2 ± 4.1 | >1.9 | 64.3 ± 3.7 | >1.6 | > 100 | – |
| C=C(C)[C@@H]1CC[C@]2(C(=O)O)CC[C@]3(C)[C@H](CC[C@@H]4[C@@]5(C)CC[C@H](O)C(C)(C)[C@@H]5CC[C@]43C)[C@@H]12 [betulinic acid, reference compound] | 2.8 | 15.4 ± 4.4 | 42.5 ± 2.5 | 98.1 ± 3.1 | >1.0 | 80.1 ± 6.1 | >1.2 | 46.5 ± 4.6 | >2.2 | 66.6 ± 2.3 | >1.5 | > 100 | – |
| C=C[C@H]1CN2CC[C@H]1C[C@H]2[C@H](O)c1ccnc2ccccc12 [cinchonidine, reference compound] | >47.6 | 2.1 ± 0.6 | > 100 | > 100 | ∼1.0 | 87.1 ± 12.1 | >1.1 | > 100 | ∼1.0 | 86.7 ± 3.9 | >1.2 | > 100 | – |
| C=C[C@H]1C[N@@]2CC[C@H]1C[C@@H]2[C@@H](O)c1ccnc2ccccc12 [cinchonine, reference compound] | >58.8 | 1.7 ± 0.6 | > 100 | > 100 | ∼1.0 | 78.2 ± 5.8 | >1.3 | 65.3 ± 2.8 | >1.5 | 74.3 ± 5.4 | >1.3 | > 100 | – |
| CC[C@H](C)[C@H]1O[C@]2(CC[C@@H]1C)C[C@@H]1C[C@@H](C/C=C(\C)[C@@H](O[C@H]3C[C@H](OC)[C@@H](O[C@H]4C[C@H](OC)[C@@H](O)[C@H](C)O4)[C@H](C)O3)[C@@H](C)/C=C/C=C3\CO[C@@H]4[C@H](O)C(C)=C[C@@H](C(=O)O1)[C@]34O)O2 [compound 1, Ivermectin] | – | – | 30 ± 1.1 | 7.2 ± 1.4 | 1.8 | 9.9 ± 1.1 | 1.3 | 8.7 ± 3.2 | 1.4 | 33.9 ± 6.3 | 0.4 | 12.6 ± 4.3 | 10.3 |
| C=C[C@H]1CN2CC[C@H]1C[C@@H]2[C@@H](OC(=O)O[C@@H]1/C(C)=C/C[C@@H]2C[C@@H](C[C@]3(CC[C@H](C)[C@@H]([C@@H](C)CC)O3)O2)OC(=O)[C@@H]2C=C(C)[C@@H](O)[C@H]3OC/C(=C\C=C\[C@@H]1C)[C@]32O)c1ccnc2ccc(OC)cc12 [compound 5, Ivermectin–Quinidine Conjugate] | 17.6 | 1.3 ± 0.4 | 22.9 ± 11.2 | 42.3 ± 0.5 | 0.4 | 13.8 ± 3.5 | 1.1 | 10.1 ± 1.4 | 1.5 | 12.4 ± 2.1 | 1.2 | 14.9 ± 1.6 | – |
| C=C[C@H]1CN2CC[C@H]1C[C@H]2[C@H](OC(=O)O[C@@H]1/C(C)=C/C[C@@H]2C[C@@H](C[C@]3(CC[C@H](C)[C@@H]([C@@H](C)CC)O3)O2)OC(=O)[C@@H]2C=C(C)[C@@H](O)[C@H]3OC/C(=C\C=C\[C@@H]1C)[C@]32O)c1ccnc2ccccc12 [compound 7, Ivermectin–Cinchonidine Conjugate] | 20.5 | 2.3 ± 0.3 | 47.2 ± 3.7 | 13.6 ± 1.1 | 3.7 | 20.1 ± 3.7 | 2.5 | 22.4 ± 1.2 | 2.2 | 7.2 ± 3.8 | 7.0 | 50.3 ± 4.9 | – |
| CC[C@H](C)[C@H]1O[C@]2(CC[C@@H]1C)C[C@@H]1C[C@@H](C/C=C(\C)[C@@H](OC(=O)N[C@H]3CCc4cc(OC)c(OC)c(OC)c4-c4ccc(SC)c(=O)cc43)[C@@H](C)/C=C/C=C3\CO[C@@H]4[C@H](O)C(C)=C[C@@H](C(=O)O1)[C@]34O)O2 [compound 8] | 7.2 | 1.4 ± 0.5 | 10.1 ± 4.9 | 12.4 ± 2.6 | >8.1 | 7.5 ± 1.6 | >13.3 | 6.6 ± 0.6 | >15.2 | 85.1 ± 9.8 | >1.2 | > 100 | – |
| CCC(C)C1OC2(CCC1C)CC1CC(CC=C(C)C(OC(=O)OCC3OC(n4cc(C)c(=O)[nH]c4=O)CC3N=[N+]=[N-])C(C)C=CC=C3COC4C(O)C(C)=CC(C(=O)O1)C34O)O2 (stereo not shown) [compound 11, Ivermectin–Azidothymidine Conjugate] | 5.6 | – | 11.1 ± 4.1 | 8.2 ± 1.9 | 3.2 | 7.7 ± 3.1 | 3.4 | 12.5 ± 1.5 | 2.1 | 8.1 ± 3.2 | 3.2 | 26.1 ± 3.3 | – |
| C=C(C)C1CCC2(C(=O)OCc3cn(CC(=O)OC4C(C)=CCC5CC(CC6(CCC(C)C(C(C)CC)O6)O5)OC(=O)C5C=C(C)C(O)C6OCC(=CC=CC4C)C56O)nn3)CCC3(C)C(CCC4C5(C)CCC(O)C(C)(C)C5CCC43C)C12 (stereo not shown) [compound 15, Ivermectin–Betulinic Acid Conjugate] | >4.6 | 21.9 ± 2.1 | > 100 | > 100 | ∼1.0 | 70.1 ± 6.4 | >1.4 | > 100 | ∼1.0 | 93.9 ± 6.4 | >1.1 | > 100 | – |
| COc1cccc2c1C(=O)c1c(O)c3c(c(O)c1C2=O)C[C@@](O)(C(=O)CO)C[C@@H]3O[C@H]1C[C@H](N)[C@H](O)[C@H](C)O1 [doxorubicin, reference compound] | – | – | – | 0.63 ± 0.2 | – | 0.6 ± 0.02 | – | 1.83 ± 0.1 | – | 0.6 ± 0.02 | – | 0.29 ± 0.1 | – |
| CC[n+]1c(-c2ccccc2)c2cc(N)ccc2c2ccc(N)cc21 [ethidium bromide, reference compound] | 202 | – | 9.3 ± 2.6 | – | – | – | – | – | – | – | – | – | – |
| O=c1[nH]c(=O)n([C@H]2C[C@H](O)[C@@H](CO)O2)cc1F [floxuridine, reference compound] | >45.5 | 2.2 ± 0.4 | > 100 | 26.4 ± 3.8 | 0.9 | 11.7 ± 4.2 | 2.1 | 22.2 ± 3.4 | 1.1 | 15.7 ± 3.3 | 1.5 | 24.3 ± 7.3 | – |
| Cc1ccc(C(=O)Nc2ccc(S(=O)(=O)O)c3cc(S(=O)(=O)O)cc(S(=O)(=O)O)c23)cc1NC(=O)c1cccc(NC(=O)Nc2cccc(C(=O)Nc3cc(C(=O)Nc4ccc(S(=O)(=O)O)c5cc(S(=O)(=O)O)cc(S(=O)(=O)O)c45)ccc3C)c2)c1 [suramin, reference compound] | – | 0.039 ± 0.004 | > 100 | – | – | – | – | – | – | – | – | – | – |
